Measured values taken from PubChem BioAssay AID179 (DTP/NCI, 2004).
pEC50, pIC50: −log10 of the molar value. Calls of active or inactive are those of the source.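 How the source made its calls: active means compounds giving half or more protection of infected cells from virus-caused growth loss, again on retest; inactive means the rest.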

Tested on: CEM cells HIV-1 protection, formazan growth assay
Test: NCI AIDS Antiviral Assay
Settings: for pIC50: measured here: growth of uninfected CEM cells
Procedure: The ability of compounds to protect human CEM cells from HIV-1 infection is measured as a screen for new compounds capable of inhibiting the HIV virus. Five concentrations of drug were tested on uninfected and infected cells and cell growth was measured using a soluble formazan assay. […] Compounds that provided at least 50% protection were retested. Compounds that provided at least 50% protection on retest were listed as moderately active. Compounds that reproducibly provided 100% protection were listed as confirmed active. […] Note that the inability to provide protection could be due to toxicity.

Compound	pEC50	pIC50	outcome
CC(=O)NCCSS(=O)(=O)CCCCS(=O)(=O)SCCNC(C)=O	3.93	3.67	
Cn1c(COc2ccc(/C=N/Nc3ccnc(N/N=C/c4ccc(OCc5c[n+]6ccccc6n5C)cc4)n3)cc2)c[n+]2ccccc12	5.52	5.49	
Cc1ccc2nc(NC(=O)/C(Cc3nc4ccc(Cl)cc4[nH]c3=O)=N\NC(C)(C)C)sc2c1	< 4.13	< 4.13	
CCCCCCCCC/C=C/C=C/C(=O)NCC(=O)NC1C(O)C(O)C(Nc2ncnc3nc[nH]c23)OC1C(O)CO (stereo not drawn)	< 4.36	6.80	
CCP(=O)(CC)C(Cl)(Cl)C(O)C(C)(C)C (stereo not drawn)	< 3.70	< 3.70	
N#Cc1c(NC(=O)CN2CCOCC2)c(C(=O)Nc2ccc(Cl)cc2)n2c1CCC2	< 4.30	< 4.30	
N#C/C(=C\c1c(Cl)cccc1Cl)c1nc(-c2ccc(Cl)cc2)cs1	< 3.70	4.14	
O=c1c2ccccc2nc(N/N=C/c2ccccc2O)n1-c1ccccc1	< 3.70	5.83	
N#CSCC1COc2ccccc2O1 (stereo not drawn)	< 3.70	5.91	
O=C(O)c1ccc(CS(=O)(=O)c2ccccc2)c([N+](=O)[O-])c1	< 3.11	3.24	
CO[C@H]1C[C@H](n2cc(C)c(=O)[nH]c2=O)O[C@@H]1CO	< 3.70	< 3.70	
O=C(NNC(=S)Nc1ccccc1)c1nsc2ccccc12	< 3.96	4.75	
CNC(=S)SSSC(=S)NC			inactive
O=C1Nc2cc(Cl)ccc2N=CC1NC(=O)C(c1ccccc1)c1ccccc1Cl (stereo not drawn)	< 3.53	3.66	
O=C(CCc1ccc(O)c(O)c1)OCCc1ccccc1	< 3.70	5.18	
CCOC(=O)c1ccccc1-c1c2cc(Br)c(=O)c(Br)c-2oc2c(Br)c(O)c(Br)cc12	< 3.70	4.92	
COc1ccc(C2Oc3c(c(O)cc4c3[C@H](c3ccc(O)cc3O)[C@H](O)C(c3ccc(O)c(O)c3)O4)C[C@@H]2O)cc1O (stereo partly drawn)			inactive
CCc1oc2ccccc2c1C(=O)c1cc(Br)c(O)c(Br)c1	< 3.70	4.46	
CC(=O)[C@]1(O)Cc2c(O)c3c(c(O)c2[C@@H](OC2CC(N)C(O)C(C)O2)C1)C(=O)c1c(OCc2ccccc2)cccc1C3=O (stereo partly drawn)			inactive
Oc1ccc2c(c1)c1c(n2CCN2CCOCC2)-c2ccccc2CC1	< 3.70	4.52	
CC1=C(C(=O)N[C@@H](CC(C)C)C(=O)O)N2C(=O)[C@@H](NC(=O)[C@@H](N)Cc3ccccc3)[C@H]2SC1	< 3.70	4.07	

Compound	pEC50	pIC50	outcome
C[N+]1(C)CC=C(N2CCOCC2)CC1	< 3.70	< 3.70	
NC(=O)OCC(O)COc1ccc(Cl)cc1 (stereo not drawn)	< 3.70	< 3.70	
COC(=O)[C@H](Cc1ccccc1)NP(=O)(O)OCC1C=CC(n2cc(C)c(=O)[nH]c2=O)O1 (stereo partly drawn)	5.06	< 3.70	
N/N=c1/nc2n(c3ncccc13)C=CNN2	< 4.61	< 4.61	
COc1ccc(NS(=O)(=O)c2ccc(NC(NC(=O)CC(C)C)(C(F)(F)F)C(F)(F)F)cc2)nn1	< 3.70	3.72	
COC(=O)C1(C)CC(c2ccccc2)=NC1c1ccccc1 (stereo not drawn)	< 3.91	< 3.91	
O=C1CC(C(O)CO)CC(=O)N1 (stereo not drawn)	< 3.70	< 3.70	
Cc1ccccc1OP(=S)(Oc1ccccc1C)Oc1ccccc1C	< 3.70	4.45	
COc1ccc(P2(=S)Oc3ccccc3-c3ccccc3O2)cc1	< 6.70	7.20	
Cc1noc(NS(=O)(=O)c2ccc(NC(=S)/N=C/C(C(=O)c3ccccc3)=C(\O)c3ccccc3)cc2)c1C	< 3.70	3.92	
Cc1cccc(C)c1N=Nc1ccc(O)c(CN(C)C)c1	< 3.70	4.40	
COc1ccc(OC)c(/C=C/c2ccnc3ccccc23)c1	7.20	5.89	
NN=C(N)N	< 3.70	< 3.70	
CCCNC(=O)Nc1c([N+](=O)[O-])cc(C(F)(F)F)cc1[N+](=O)[O-]			inactive
O=C(N/C(=C\c1ccc(/C=C(\NC(=O)c2ccccc2)c2nc3cc([N+](=O)[O-])ccc3[nH]2)cc1)c1nc2cc([N+](=O)[O-])ccc2[nH]1)c1ccccc1			inactive
CC1(C)CN=C(c2ccc3ccccc3c2O)N1	< 3.70	< 3.70	
O=C(O)c1ccc([N+](=O)[O-])c2c(=O)c3ccccc3[nH]c12			inactive
Cc1cc(C2=CSC3=NCCN23)ccc1Cl	< 3.70	3.82	
Cc1cc(O)cc2oc(=O)c3c(O)cc(O)cc3c12	< 3.32	4.90	
O=C1OCC2OC(O)C(O)C(O)C2OC(=O)c2cc(O)c(O)c(O)c2-c2c(O)c(O)c3oc(=O)c4c(c(O)c(O)c5oc(=O)c2c3c54)-c2c1cc(O)c(O)c2O (stereo not drawn)	5.38	4.83	
CC(=O)Nc1ccc2nc(-c3ccccn3)c(-c3ccccn3)nc2c1	4.56	< 3.70	

Compound	pEC50	pIC50	outcome
COC(=O)c1ccccc1CC(Cc1ccc2c(c1)CCC2)C(=O)OC (stereo not drawn)	< 3.70	4.25	
Cc1nnc(SCC2=C(C(=O)O)N3C(=O)C(NC(=O)Cn4cnnn4)C3SC2)s1 (stereo not drawn)	< 3.70	< 3.70	
CCOC(=O)C(=O)C(=O)NN(C)C1=NCCN1	< 3.70	< 3.70	
CCCCC1(N=[N+]=[N-])C(=O)c2cccc3c2N(CCC3)C1=O (stereo not drawn)	< 3.70	< 3.70	
Cc1cc(=O)[nH]c2[nH][nH]c(=O)c12			inactive
COc1ccc(-c2nc3sc(-c4ccc(OC)c(OC)c4)nc3s2)cc1OC	< 3.70	< 3.70	
CC1=C2[C@H](c3ccccc3)C3C=CC2(c2ccccc23)N(C(=O)C(c2ccccc2)c2ccccc2)C1=O (stereo partly drawn)	< 5.82	< 5.82	
CC(CN(C)C)OC(=O)c1cc2ccccc2n1-c1ccccc1 (stereo not drawn)	< 3.70	4.04	
O=c1oc2ccccc2c(O)c1C(c1ccc([N+](=O)[O-])cc1)c1c(O)c2ccccc2oc1=O			inactive
CCOC(=O)/C(=C/c1ccc(N(C)C)cc1)N(CC)CC	< 4.33	< 4.33	
OC1(c2ccccc2)N=C(c2ccccc2)c2ccccc2-n2cccc21 (stereo not drawn)	< 3.70	< 3.70	
CC1CN(c2ccccc2)NC1=O (stereo not drawn)	< 3.70	< 3.70	
CCN(Cc1ccccc1)c1ccc(/C=C/c2nccc3ccccc23)cc1	< 4.84	4.85	
C(=C(Sc1ccccc1)Sc1ccccc1)C(Sc1ccccc1)c1ccccc1 (stereo not drawn)	< 3.70	< 3.70	
CC(C)(C)[Si](C)(C)OCC1OC(n2ccc(=O)[nH]c2=O)C(O[Si](C)(C)C(C)(C)C)/C1=C/CO (stereo not drawn)	< 3.70	5.08	
CC12CC3CC(C)(C1)CC(SCCN)(C3)C2	< 3.70	4.42	
CCOC(=O)c1csc(-c2nc(CCNC(=O)c3ccccc3)sc2Cl)n1	< 4.07	4.35	
C=C1c2nc3ccccc3n2C=C(c2ccc(C)cc2)N1c1ccc(C)cc1	< 3.70	4.57	
COC(=O)c1ccccc1NC(c1ccccn1)c1ccc2cccnc2c1O (stereo not drawn)	< 4.59	5.88	
COC(C/C(=C/CO[Si](C(C)C)(C(C)C)C(C)C)C(=O)Nc1ccccc1I)OC	< 3.70	4.39	
N#CC1=C(N)N(c2ccccc2)C(c2ccccc2)C1(C#N)C#N (stereo not drawn)	< 3.70	4.85	
